According to US6379959B1, “Metalocarboxypeptidase inhibitors and derived molecules used as antitumor agents” (Universitat Autonoma de Barcelona, priority 1996, dated 2002):
Where two headings read alike, the source gives them in different places. Positions of bridges follow the written chain, without caps; N, C: chain ends. No end group written: not given here.

What was measured:
[1] = tested on: hamster insulinome cell line HIT; test: Proliferation test by recount of the cells number (hemocytometer), HIT; type: cell-based; settings: Postadhesion, 4 days
Method: In this assay and with the aim of determining whether the presence in the culture medium produces some effect on the growth in vitro of the cell lines, the final number of the cells when the control reaches monolayer is determined, in the presence and in the absence of the inhibitor. The calculation is made by direct recount of the number of cells using trypsinization and subsequent recount in a hemocytometer. The detailed method is as follows: 1. In each of the three culture flasks of 25 cm^2, 5×10^5 cells are seed and a total volume of the culture medium is added (DMEM with a 10% of fetal bovine serum or synthetic serum, according to the test) of 5 mL: 2. The cells are maintained in an incubator at 37° C., 87% of relative humidity and 10% of CO2. […] The total number of cells of the W zone of the hemocytometer is counted, differentiating between the live and the dead ones. Based on this recount, the total number of cells that was in the initial suspension (which will be the total number of cells that was in the culture) is calculated by multiplying the number obtained by 2×10^4. The viability (in %) is calculated by dividing the number of live cells by the total number of counted cells and multiplying it by 100. The effect produced by the presence of PCI in the medium is expressed as % of cell growth inhibition, which is calculated according to the formula [formula] […]

[2] = tested on: human pancreatic adenocarcinoma cell line Capan-1; type: cell-based; settings: SFM, 72 h
Method: Other kinds of tests were also carried out, the cells growing in serum-free medium as well; these were studies at short periods of time, 72 h, and of competitiveness with a growth factor plus wtPCI, PCIdelYVG or tail. […] The protocol employed was as follows:
1. In a culture plate of 96 wells, in 42 of which 5,000 cells per well were seed. The cells were placed in full medium (DMEM+10%FBS).
2. After 72 h, once the adhesion of the cells to the surface of the well had taken place, as well as their division, the medium was removed from the wells and to eliminate the remainder of the serum, 200 μL of PBS were added to each well.
3. The PBS was removed and 200 μL of DMEM-FBS were added.
4. After 24 h, the medium was removed and the following treatments were applied:
In 6 wells (control): 200 μL of serum-free medium (SFM) were added.
200 μL of SFM plus the indicated concentration of one of the growth factors and wtPCI were added in 6 wells at a final concentration of 50 μg/mL.
In 6 wells, 200 μL of SFM plus the indicated concentration of one of the growth factors and PCIdelYVG were added at a final concentration of 46 μg/mL. […]
4. Cells were kept in an incubator at 37° C., 87% of relative humidity and 10% of CO2.
5. After 72 h, the cellular growth per well was evaluated using the method detailed in the protocol of Section 4.B.2.a.

[3] = tested on: mouse melanoma B16 cell line; test: Metastasis test in vivo, liver metastatic focuses after intrasplenic B16 inoculation; design: species or system mice C57BL/6J; settings: killed day 11 (control 32±7)
Method: In order to study the effect of the PCI on the metastatic capacity of the tumoral cells, mouse melanoma B16 cell line are used used because this line is singeneic with the mice. These cells, intrasplenically inoculated in singeneic mice, after 7 days, start to develop metastasis in the liver of the mouse. The following material was employed:
A control group: consisting of 5 mice to which 300,000 cells dissolved in 0.1 mL of alphaMEM-Hepes were inoculated. The mice, previously anaesthetized with nembutal, were inoculated by way of intrasplenic injection, by means of a little incision and subsequently closed with stitches. These mice were killed 11 days after injection of the tumoral cells by cervical dislocation.
Treatment 1: again, 5 mice were inoculated in the same way as those of the control group. Six days after the injection, a daily treatment with 0.1 mg/mL of PCI in 0.1, mL of PBS by way of intraperitoneal injection was started. The animals were also killed on the eleventh day after the injection.
Treatment 2: in this case, the cells inoculated to the mice (also 5 of them) were previously treated in vitro for 4 days in a concentration of 0.1 mg/mL of PCI. […]
Once killed, their liver was extracted. […] Afterwards, the sections were dyed with hematoxyline-eosine and the number of metastatic focuses was counted.

PCI: potato carboxypeptidase inhibitor, isoform IIa, obtained by recombinant DNA techniques in E. coli (SEQ ID NO.2) (EQHADPICNKPCKTHDDCSGAWFCQACWNSARTCGPYVG; disulfide 12-27, 18-34, 8-24)
Percentage of Growth Inhibition ([1]; 10 mg PCI/mL): 43.0 ± 22.8%
Percentage of Growth Inhibition ([1]; 50 mg PCI/mL): 60.1 ± 28.3%
Growth (Percentage in relation to the average of the controls) ([2]; EGF 10 ng/mL + 50 mg/mL wtPCI): 30.63%
Growth (Percentage in relation to the average of the controls) ([2]; Insulin 5 mg/mL + 50 mg/mL wtPCI): 44.10%
number of metastatic focuses in liver ([3]; treatment 1: daily intraperitoneal 0.1 mg/mL of PCI in 0.1 mL PBS from day 6): 27 focuses
number of metastatic focuses in liver ([3]; treatment 2: cells treated in vitro 4 days with 0.1 mg/mL of PCI before inoculation): 4±1 focuses
